Holding throughout (experiment): Germ-count reduction test, sterile town water, pH adjusted to 8.2
Holding throughout (set-up): key: −: growth-free; +: slight growth; ++: moderate growth; +++: considerable growth; ++++: massive growth; L: lawn-like growth
Settings in all cases: +0.01% 2

In one assay the test system is P. aeruginosa. In kind it is cell-based, Pseudomonas aeruginosa. As for the experimental part: (§1) The pH was adjusted to 8.2 with HCl.
(§2) 24-Hour CSL cultures are prepared from 24-hour CS slant agar cultures of Staphylococcus aureus/Pseudomonas aeruginosa. Incubation takes place at 37° C.
(§3) The titre of the bacteria suspensions is ca. 10^9 CFU/ml.
(§4) A dilution series of four concentrations is prepared from the active ingredient to be tested and poured into 10 ml sterile tubes. One dilution series is required per test germ. Each tube is inoculated with 0.1 ml of the individual germ suspensions.
(§5) […] The bacteria are streaked on CSA and incubated for 48 hours at 37° C. (Pseudomonas aeruginosa and Staphylococcus aureus) or 25° C. (Pseudomonas fluorescens/Pseudomonas putida). The fungi are streaked on Sabouraud agar and incubated for 48 hours at 37° C. (Candida albicans) and 25° C. (Aspergillus niger).

The next assay concerns P. funiculosum. In kind it is cell-based.
A further assay concerns S. aureus. In kind it is cell-based, Staphylococcus aureus. As for the experimental part:
as §1, §2, §3, §4, §5

The test system of the next assay is A. niger. In kind it is cell-based, Aspergillus niger. The procedure:
as §1
A 7-14-day-old Aspergillus niger culture on Sabouraud agar is elutriated with 5 ml of NaCl, filtered through a glass filter containing glass wool and topped up to 200 ml. This suspension has a titre of ca. 10^7 CFU/ml.
as §4, §5

Another assay deals with E. coli. In kind it is cell-based.
For a further assay, the system named is C. albicans. In kind it is cell-based, Candida albicans. As for the experimental part: as §1
A 4-day-old Candida albicans culture (CSA+grape sugar) is elutriated with 5 ml of physiological sodium chloride solution and adjusted in accordance with a barium sulphate standard (see DVG Guideline). The titre of the Candida albicans suspension is 10^8 CFU/ml.
as §4, §5

On to `CCCCCCCCCCCCN(CCCN)CCCN` [compound 2, bis(aminopropyl)dodecylamine], for which the growth entry is “+” in the assay with P. aeruginosa (1 h); “+” with P. aeruginosa (3 h); “−” in the assay with P. aeruginosa (6 h); “−” in the assay with P. aeruginosa (24 h); “−” with P. funiculosum (1 h); “−” with P. funiculosum (3 h). The growth result with P. funiculosum (6 h), with P. funiculosum (24 h), in the assay on S. aureus (1 h), in the assay with S. aureus (3 h), in the assay on S. aureus (6 h) and in the assay on S. aureus (24 h) was “−” each time. Further, the growth entry in the assay on A. niger (1 h) is listed as “−”; in the assay on A. niger (3 h), “−”; in the assay on A. niger (6 h), “−”; in the assay with A. niger (24 h), “−”; in the assay on E. coli (1 h) it was “+”; with E. coli (3 h), “−”. For the same molecule, the growth entry in the assay on E. coli (6 h), in the assay with E. coli (24 h), in the assay on C. albicans (1 h), in the assay with C. albicans (3 h), with C. albicans (6 h) and in the assay on C. albicans (24 h) was “−” throughout.

Source of the values: patent US20120189603A1, “STORAGE-STABLE, SYNERGISTIC MICROBICIDAL CONCENTRATES CONTAINING AN ISOTHIAZOLONE, AN AMINE AND AN OXIDIZING AGENT” (L"AIR LIQUIDE, SOCIETE ANONYME POUR L'ETUDE ET L' …, priority 2009, published 2012).
